Calls of active or inactive are those of the source. No rule for the calls is given here.
system: CRE-BLA reporter cells, beta-lactamase FRET, counterscreen; assay: activators of CRE-BLA reporter, SAR follow-up, counter-screen for S1P2 agonist project, cell-based, purchased analogues, beta-lactamase FRET (AID 874)

Row | Compound | EC50
1 | CC(=O)Nc1ccc(OCC(=O)c2cc(C)n(Cc3ccccc3)c2C)cc1 | > 44 µM (inactive)
2 | CC(=O)c1cccc(OCC(=O)c2cc(C)n(Cc3ccccc3)c2C)c1 | > 44 µM (inactive)
3 | CC(=O)Nc1ccc(SCC(=O)c2cc(C)n(Cc3ccccc3)c2C)cc1 | > 44 µM (inactive)
4 | Cc1cc(C(=O)CSc2nnnn2C(C)(C)C)c(C)n1Cc1ccccc1 | > 44 µM (inactive)
5 | Cc1cc(C(=O)CN2C(=O)NC3(CCOc4ccccc43)C2=O)c(C)n1Cc1ccccc1 (centres undefined) | > 44 µM (inactive)
6 | Cc1cc(C(=O)Cn2cc(C(F)(F)F)ccc2=O)c(C)n1Cc1ccccc1 | > 44 µM (inactive)
7 | Cc1cc(C(=O)CN2C(=O)CCC2=O)c(C)n1Cc1ccccc1 | > 44 µM (inactive)
8 | Cc1cc(C(=O)CN2C(=O)CCC2=O)c(C)n1Cc1ccc2c(c1)OCO2 | > 44 µM (inactive)
9 | Cc1cc(C(=O)Cn2cnc3c(oc4ccccc43)c2=O)c(C)n1Cc1ccccc1 | > 44 µM (inactive)
10 | Cc1cc(C(=O)COC(=O)C2CCC2)c(C)n1Cc1ccccc1 | > 44 µM (inactive)
11 | Cc1cc(C(=O)Cn2cnc3c2c(=O)n(C)c(=O)n3C)c(C)n1Cc1ccccc1 | > 44 µM (inactive)
12 | Cc1cc(C(=O)CN2C(=O)NC3(CCc4ccccc43)C2=O)c(C)n1Cc1ccccc1 (centres undefined) | > 44 µM (inactive)
13 | Cc1cc(C(=O)O)c(C)n1Cc1ccccc1 | > 44 µM (inactive)
14 | Cc1cc(C(=O)CN(C)CC(=O)N2CCCC2)c(C)n1Cc1ccccc1 | > 44 µM (inactive)
15 | Cc1cc(C(=O)COC(=O)c2ccco2)c(C)n1Cc1ccccc1 | > 44 µM (inactive)
16 | Cc1cc(C(=O)COC(=O)CCS(=O)(=O)c2ccccc2)c(C)n1Cc1ccccc1 | > 44 µM (inactive)
17 | Cc1nc(C)c(C(=O)OCC(=O)c2cc(C)n(Cc3ccccc3)c2C)s1 | > 44 µM (inactive)
18 | CCNC(=O)CN(CC)CC(=O)c1cc(C)n(Cc2ccccc2)c1C | > 44 µM (inactive)
19 | Cc1cc(C(=O)CN2C(=O)NC(Cc3ccccc3)C2=O)c(C)n1Cc1cccs1 (centres undefined) | > 44 µM (inactive)
20 | Cc1cc(C(=O)COC(=O)CN2C(=O)NC(C)(C)C2=O)c(C)n1Cc1ccccc1 | > 44 µM (inactive)

Row | Compound | EC50
21 | Cc1cc(C(=O)COC(=O)C(O)c2ccccc2)c(C)n1Cc1ccccc1 (centres undefined) | > 44 µM (inactive)
22 | COc1ccc(NC(=O)CN(C)CC(=O)c2cc(C)n(Cc3ccccc3)c2C)cc1 | > 44 µM (inactive)
23 | Cc1cc(C(=O)CSc2ncccn2)c(C)n1Cc1ccccc1 | > 44 µM (inactive)
24 | CCC1(CC)NC(=O)N(CC(=O)OCC(=O)c2cc(C)n(Cc3ccccc3)c2C)C1=O | > 44 µM (inactive)
25 | CCOC(=O)c1cc(C)n(Cc2ccccc2)c1C | > 44 µM (inactive)
26 | Cc1cc(C(=O)CSc2nnc(C3CC3)n2C)c(C)n1Cc1ccccc1 | > 44 µM (inactive)
27 | Cc1cc(C(=O)CSc2nnnn2C2CC2)c(C)n1Cc1ccccc1 | > 44 µM (inactive)
28 | Cc1cc(C(=O)CN(C)CC(=O)N2CCOCC2)c(C)n1Cc1ccccc1 | > 44 µM (inactive)
29 | Cc1cc(C(=O)CN2C(=O)C(=O)N(Cc3ccccc3)C2=O)c(C)n1Cc1ccc(F)cc1 | > 44 µM (inactive)
30 | Cc1cc(C)nc(SCC(=O)OCC(=O)c2cc(C)n(Cc3ccccc3)c2C)n1 | > 44 µM (inactive)
31 | Cc1nn(CC(=O)c2cc(C)n(Cc3ccccc3)c2C)c(C)c1[N+](=O)[O-] | > 44 µM (inactive)
32 | COCCNC(=O)CN(C)CC(=O)c1cc(C)n(Cc2ccccc2)c1C | > 44 µM (inactive)
33 | Cc1cc(C(=O)CN(C)CC(=O)NC(C)C)c(C)n1Cc1ccccc1 | > 44 µM (inactive)
34 | Cc1cc(C(=O)CN2CCN(C(=O)c3ccco3)CC2)c(C)n1Cc1ccccc1 | > 44 µM (inactive)
35 | Cc1cc(C(=O)COC(=O)CN2C(=O)C3CCCCC3C2=O)c(C)n1Cc1ccccc1 (centres undefined) | > 44 µM (inactive)
36 | Cc1noc(C)c1C(=O)OCC(=O)c1cc(C)n(Cc2ccccc2)c1C | > 44 µM (inactive)
37 | Cc1cc(C(=O)CN2C(=O)C(=O)N(Cc3ccccc3)C2=O)c(C)n1Cc1ccco1 | > 44 µM (inactive)
38 | Cc1cc(C(=O)COC(=O)Cn2cnc3ccccc3c2=O)c(C)n1Cc1ccccc1 | > 44 µM (inactive)
39 | CC(=O)c1ccc(OCC(=O)c2cc(C)n(Cc3ccccc3)c2C)cc1 | > 44 µM (inactive)
40 | CNC(=O)c1ccc(CN(C)CC(=O)c2cc(C)n(Cc3ccccc3)c2C)cc1 | > 44 µM (inactive)

Row | Compound | EC50
41 | Cc1cc(C(=O)CN(C)CC(=O)NC(C)(C)C)c(C)n1Cc1ccccc1 | > 44 µM (inactive)
42 | Cc1cc(C(=O)CSc2ncn[nH]2)c(C)n1Cc1ccccc1 | > 44 µM (inactive)
43 | CCCNC(=O)CN(C)CC(=O)c1cc(C)n(Cc2ccccc2)c1C | > 44 µM (inactive)
44 | Cc1cc(C(=O)CN(C)CC(=O)NC2CC2)c(C)n1Cc1ccccc1 | > 44 µM (inactive)
45 | Cc1cc(C(=O)CN2C(=O)C(=O)N(Cc3ccco3)C2=O)c(C)n1Cc1ccccc1 | > 44 µM (inactive)
46 | Cc1cc(C(=O)COC(=O)C2CSC3(C)CCC(=O)N23)c(C)n1Cc1ccccc1 (centres undefined) | > 44 µM (inactive)
47 | Cc1cc(C(=O)CN2C(=O)NC(Cc3ccccc3)C2=O)c(C)n1Cc1ccccc1 (centres undefined) | > 44 µM (inactive)
48 | Cc1cc(C(=O)COC(=O)Cn2c(=O)oc3ccccc32)c(C)n1Cc1ccccc1 | > 44 µM (inactive)
49 | Cc1cc(C(=O)CN(C)CC(=O)N(C)C)c(C)n1Cc1ccccc1 | > 44 µM (inactive)
50 | Cc1cc(C(=O)CN2C(=O)C(=O)N(Cc3ccccc3)C2=O)c(C)n1Cc1ccccc1 | > 44 µM (inactive)
51 | COc1ccc(C(N)=O)c(OCC(=O)c2cc(C)n(Cc3ccccc3)c2C)c1 | > 44 µM (inactive)
52 | Cc1cc(C(=O)COc2ccc(C(N)=O)cc2)c(C)n1Cc1ccccc1 | > 44 µM (inactive)
53 | Cc1cc(C(=O)CN2C(=O)C(=O)N(C)C2=O)c(C)n1Cc1ccccc1 | > 44 µM (inactive)
54 | Cc1sc2ncn(CC(=O)c3cc(C)n(Cc4ccccc4)c3C)c(=O)c2c1C | > 44 µM (inactive)
55 | Cc1cc(C(=O)CSc2nnnn2C)c(C)n1Cc1ccccc1 | > 44 µM (inactive)
56 | Cc1ccc(C(=O)OCC(=O)c2cc(C)n(Cc3ccccc3)c2C)o1 | > 44 µM (inactive)
57 | Cc1cc(C(=O)CN(C)Cc2ccco2)c(C)n1Cc1ccccc1 | > 44 µM (inactive)
58 | COc1cccc(C2(C)NC(=O)N(CC(=O)c3cc(C)n(Cc4ccccc4)c3C)C2=O)c1 (centres undefined) | > 44 µM (inactive)
59 | Cc1cc(C(=O)CN2C(=O)C(=O)N(C3CCCC3)C2=O)c(C)n1Cc1ccccc1 | > 44 µM (inactive)

Reference: PubChem BioAssay AID874 (The Scripps Research Institute Molecular Screening Center, 2007)
